Legend:
MalA′ = assay: Co-crystallization with MalA′; type: binding, Malbranchea graminicola
Procedure: Crystallization conditions. […] The purified MalA′ was dialyzed overnight into a 20 mM HEPES pH 7 buffer with 200 mM NaCl or 300 mM NaCl to remove glycerol, and then supplemented with an equimolar quantity of FAD. […] For active site complexes with compounds 2, 3, and 4, MalA′ was pre-incubated with a four-fold molar excess of substrate. Crystals were grown by vapor diffusion from 1:2 mixtures of 5 mg/mL MalA′ pre-incubated with compound 2, 3 or 4 and a well solution containing 2 M (NH4)2SO4, 0.2 M Li2SO4, 5 mM CdCl2, and 0.1 M Bis-Tris pH 5.5. Crystals were cryoprotected in well solution augmented with 10% glycerol and flash-cooled in liquid nitrogen.

MalA = molecular target: T1, MalA (Malbranchea aurantiaca, UniProt L0E155); assay: Michaelis-Menten kinetics of MalA chlorination reactions; type: biochemical
T1 construct: The malA coding region was amplified from the cDNA template by PCR; made in house; host or cells: E. coli BL21 (DE3) with pGro7 (GroEL/GroES) chaperone plasmid
Procedure: Substrates malbrancheamide B (compound 3) and isomalbrancheamide B (compound 4) to product malbrancheamide (compound 1). Reactions were set up in a total volume of 250 μL with the following components: 1.1 μM MalA, 44 μM HpaC flavin reductase, 100 μM FAD, 50 mM NaCl, 3.6 mM NADH, and a variety of substrate concentrations ranging from 1 μM to 60 μM. Reactions were quenched with methanol by removing 50 μL at each time point (2, 5, 10, 15 minutes). Reactions were analyzed on a Schimadzu HPLC with the following LC time program: 40% acetonitrile for 1 minute, gradient over 6 minutes from 40-85% acetonitrile, 85% acetonitrile for 1 minute, gradient over 1 minute to 40% acetonitrile, re-equilibration to 40% acetonitrile for 3 minutes. The absorbance was measured at 240 nm and the mobile phase consisted of water and acetonitrile. A Phenomenex Lux cellulose-3, cellulose Tris (4-methylbenzoate) 250×4.6 mm column was used for separation. GraphPad Prism (Version 6.01) software was used to plot the initial velocities against the substrate concentration and to determine the kinetic constants kcat and Km.
Substrate premalbrancheamide (compound 2) to products isomalbrancheamide B (compound 4) and malbrancheamide B (compound 3). Reactions were set up in a total volume of 250 μL with the following components: 1.8 μM MalA, 44 μM HpaC, 100 μM FAD, 50 mM NaCl, 3.6 mM NADH, and a variety of substrate concentrations ranging from 5 μM to 80 μM. Reactions were quenched with 100 μL methanol by removing 50 μL at each time point (2, 5, 7, 10 minutes). Reactions were analyzed on a Schimadzu HPLC with the following LC time program: 34% acetonitrile for 1 minute, gradient over 11 minutes to 62% acetonitrile, 62% acetonitrile for 30 seconds, gradient over 30 seconds to 34% acetonitrile, re-equilibration to 34% for 3 minutes. The absorbance was measured at 240 nm and the mobile phase consisted of water and acetonitrile. A Phenomenex Lux cellulose-3 Tris (4-methylbenzoate) 250×4.6 mm column was used for separation.
Michaelis-Menten kinetic parameters were determined for the natural chlorination reactions of MalA. […] These catalytic efficiencies are fairly high compared to those of the eukaryotic FDH Rdc2, which are 2.93 min−1 mM−1 for the initial chlorination reaction and 0.11 min−1 mM−1 for the second chlorination reaction.^4

[1] = chlorination, compound 2 to compound 3
[2] = chlorination, compound 2 to compound 4
[3] = second chlorination, to compound 1

T1 sequence (L0E155 whole entry): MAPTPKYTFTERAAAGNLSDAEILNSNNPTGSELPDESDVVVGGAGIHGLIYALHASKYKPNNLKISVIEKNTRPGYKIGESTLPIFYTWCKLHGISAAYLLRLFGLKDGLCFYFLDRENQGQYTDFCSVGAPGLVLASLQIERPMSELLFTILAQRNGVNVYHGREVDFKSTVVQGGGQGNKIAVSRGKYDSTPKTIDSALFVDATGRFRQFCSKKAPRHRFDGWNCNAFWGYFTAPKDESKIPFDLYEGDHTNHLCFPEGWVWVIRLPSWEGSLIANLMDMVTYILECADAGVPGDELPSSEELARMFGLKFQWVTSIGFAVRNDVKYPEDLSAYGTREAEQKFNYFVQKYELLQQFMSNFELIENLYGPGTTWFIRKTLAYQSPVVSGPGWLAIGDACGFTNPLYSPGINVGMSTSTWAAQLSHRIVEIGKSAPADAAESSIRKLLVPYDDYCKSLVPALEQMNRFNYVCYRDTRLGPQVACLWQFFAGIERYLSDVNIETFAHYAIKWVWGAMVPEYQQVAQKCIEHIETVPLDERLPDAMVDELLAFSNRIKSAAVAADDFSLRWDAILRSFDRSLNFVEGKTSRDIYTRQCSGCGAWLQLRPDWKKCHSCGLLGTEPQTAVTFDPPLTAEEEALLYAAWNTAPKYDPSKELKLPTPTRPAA

CC1(C)c2[nH]c3cc(Cl)c(Cl)cc3c2C[C@@]23CN4CCC[C@]4(C[C@@H]12)C(=O)N3 [compound 1, malbrancheamide]
binding in MalA′ crystals (MalA′): did not bind in crystals

CC1(C)c2[nH]c3ccccc3c2CC23CN4CCCC4(CC21)C(=O)N3 (stereo not drawn) [compound 2, premalbrancheamide]
Km (MalA; [1]): 7 µM | kcat (MalA; [1]): 0.0013 s⁻¹ | Km (MalA; [2]): 7.5 µM | kcat (MalA; [2]): 0.0015 s⁻¹

CC1(C)c2[nH]c3cc(Cl)ccc3c2C[C@@]23CN4CCC[C@]4(C[C@@H]12)C(=O)N3 [compound 3, malbrancheamide B]
Km (MalA; [3]): 4.4 µM | kcat (MalA; [3]): 0.002 s⁻¹

CC1(C)c2[nH]c3ccc(Cl)cc3c2C[C@@]23CN4CCC[C@]4(C[C@@H]12)C(=O)N3 [compound 4, isomalbrancheamide B]
Km (MalA; [3]): 4 µM | kcat (MalA; [3]): 0.002 s⁻¹

— patent US12252714B2, “Halogenation of complex organic compounds” (REGENTS OF THE UNIVERSITY OF MICHIGAN, priority 2018, dated 2025)
